# Marks after values point to notes of the source that are not given here.
# Legend:
# mice = test: Hot plate test (pain sensitivity); type: in vivo; details: for Latent period (hot plate): mice
# Excerpt: The analgesic effect is present at all studied doses and increases with increasing dose.
# patients = test: Topical solution on periodontal, enamel and dentin condition; type: in vivo, human; details: for Efficacy on a 4-point scale (periodontal, enamel and dentin condition): humans, topical
# Excerpt: Studies of the effects of Phenotropil on condition of paradontium, enamel and dentin with topic application involved men and women (45-54 years) diagnosed with periodontitis, parodontosis and caries. Enrollment of groups by separate indicators in this age failed. In the vast majority of subjects, the diseases were combined. The gender ratio in groups was: 30.0% men and 70.0% women, the ratio of smokers to non-smokers 60:40, the number of female smokers was higher than male smokers by 35.0%. All patients received every three days the required amount of 0.1%, 0.2% or 0.3% solution of Phenotropil or placebo. The solutions were applied daily as dental trays (for 30 sec.) in the morning and evening at 30 ml per application for 30 days. Food and drinks intake, including water, were not recommended for 2 hours after the procedure. All patients underwent a dental check-up and standard hygienic treatment with removing plaque and dental scale and lavaging the gingival pockets with 1% Phenotropil solution. For each subject, the studied parameters were recorded; the aggregate integral indicator of the general periodontal condition of enamel and dentin was calculated, in the negative scores. The examinations were conducted once a week throughout the period of monotherapy. Simultaneous studies were conducted for evaluation of lipid peroxidation state in samples of saliva, at the baseline examination and after the course of therapy.
# The positive effect of treatment with Phenotropil was observed after about 14 days and intensified in the course of therapy. Efficacy after one month of treatment with the drug was the highest and most evident at the initial stages of disease and moderate severity of […]. Effect on periodontitis was apparent, but less pronounced. Treatment of periodontitis probably requires a longer course and administration of Phenotropil tablets according to the usual regime to modulate the general functional state of the body. The ranking evaluation of efficacy (0—no effect, 1—slightly pronounced effect below 30.0% in the group, 2—average degree of efficacy from 30.0 to 50.0%, 3—high efficacy, above 50.0%) was established by an integral indicator of the aggregate of all the parameters tested.
# rats [1] = test: Locomotor activity in Opto-varimex, HEF and LEF rats; type: in vivo
# Excerpt: (RS)-2-(2-oxo-4-phenylpyrrolidin-1-yl)acetamide has a psychomodulatory activity with the commensurate effect on motor activity of rats.
# rats [2] = test: Hypotensive activity in rats (cannula in carotid artery); type: in vivo; details: adult rats; i.p. and intragastric 50-100 mg/kg; one hour after administration
# Description: Study of the effect of Phenotropil on cerebral blood flow, systemic blood pressure (BP) and the nervous regulation of blood circulation was made on 6 anesthetized cats under general anesthesia (urethane+chloralose). Phenotropil was administered intravenously at a dose of 50 mg/kg with distilled water; the baseline state of each animal prior to drug administration served as control. Cerebral blood flow was recorded in the common carotid artery (CCA) by an electromagnetic meter. The nervous regulation of cerebral circulation was judged by the vasomotor pressor reflex (VPR). The results of the experiment show (Table 6.1) that the racemic compound causes a moderate increase in cerebral blood flow in anesthetized animals. The cerebrovascular effect is accompanied by vascular hypotension with manifestation of oppression of the vasomotor reflex. The biphasic behaviour of SBP is consistent with the pattern of the effect on TSIP under no abnormalities with stabilization of the normotonic state. At intraperitoneal and intragastric administration of Phenotropil (25-300 mg/kg) to white outbred adult rats of both sexes, hypotensive activity (by blood method through the cannula connected to the carotid artery) was manifested one hour after administration at doses of 50-100 mg/kg and was in average 13%±2.85, while with increasing doses this effect disappears. […]
# HSP32 = HSP32 level in brain structures (Western blot); type: in vivo; details: Wistar rats, no Ns
structure (smiles),measurement,setting,value
"NC(=O)CN1CC(c2ccccc2)CC1=O (racemic) [Compound 1, (RS)-2-(2-oxo-4-phenylpyrrolidine-1-yl)acetamide]",reduction of pain sensitivity,"mice; 50 mg/kg, 30 minutes",14.3%
same,reduction of pain sensitivity,"mice; 50 mg/kg, 60 minutes",8.3%
same,reduction of pain sensitivity,"mice; 50 mg/kg, 120 minutes",10.8%
same,reduction of pain sensitivity,"mice; 100.0 mg/kg, 30 minutes",12.4%
same,reduction of pain sensitivity,"mice; 100.0 mg/kg, 60 minutes",12.5%
same,reduction of pain sensitivity,"mice; 100.0 mg/kg, 120 minutes",31.5%
same,reduction of pain sensitivity,"mice; 300.0 mg/kg, 30 minutes",71.4%
same,reduction of pain sensitivity,"mice; 300.0 mg/kg, 60 minutes",61.5%
same,Latent period (hot plate),"mice; 50.0 mg/kg i.p., 30 min",12.0 ± 1.1 min
same,Latent period (hot plate),"mice; 50.0 mg/kg i.p., 60 min",11.7 ± 0.7 min
same,Latent period (hot plate),"mice; 50.0 mg/kg i.p., 120 min",12.3 ± 0.8 min
same,Latent period (hot plate),"mice; 100.0 mg/kg i.p., 30 min",11.8 ± 0.7^ min.
same,Latent period (hot plate),"mice; 100.0 mg/kg i.p., 60 min",13.5 ± 1.4 min
same,Latent period (hot plate),"mice; 100.0 mg/kg i.p., 120 min",14.6 ± 1.4 min
same,Latent period (hot plate),"mice; 300.0 mg/kg i.p., 30 min",18.0 ± 1.0 min
same,Latent period (hot plate),"mice; 300.0 mg/kg i.p., 60 min",18.2 ± 0.8 min
same,Latent period (hot plate),"mice; 300.0 mg/kg i.p., 120 min",22.2 ± 1.0 min
same,smokers who quit smoking at the third week of therapy,"patients; 0.1-0.3% solution as dental trays, 30 days",25.0%
same,"Efficacy on a 4-point scale (periodontal, enamel and dentin condition)",patients; Phenotropil 1%,2* (average degree of efficacy from 30.0 to 50.0%)
same,"Efficacy on a 4-point scale (periodontal, enamel and dentin condition)",patients; Phenotropil 2%,"3* (high efficacy, above 50.0%)"
same,"Efficacy on a 4-point scale (periodontal, enamel and dentin condition)",patients; Phenotropil 3%,"3* (high efficacy, above 50.0%)"
same,locomotor activity vs control,"rats [1]; HEF rats, 5 mg/kg i.g., 0-5 min",−0.06%
same,locomotor activity vs control,"rats [1]; HEF rats, 5 mg/kg i.g., 5-10 min",+7.36% *
same,locomotor activity vs control,"rats [1]; HEF rats, 5 mg/kg i.g., 10-15 min",−7.36%
same,locomotor activity vs control,"rats [1]; HEF rats, 5 mg/kg i.g., 15-20 min",−96.53% *
same,locomotor activity vs control,"rats [1]; HEF rats, 5 mg/kg i.g., 20-25 min",−103.15% *
same,locomotor activity vs control,"rats [1]; HEF rats, 5 mg/kg i.g., 25-30 min",+207.1% *
same,locomotor activity vs control,"rats [1]; HEF rats, 10 mg/kg i.g., 0-5 min",−4.2%
same,locomotor activity vs control,"rats [1]; HEF rats, 10 mg/kg i.g., 5-10 min",−8.4%
same,locomotor activity vs control,"rats [1]; HEF rats, 10 mg/kg i.g., 10-15 min",−3.73%
same,locomotor activity vs control,"rats [1]; HEF rats, 10 mg/kg i.g., 15-20 min",+7.44%
same,locomotor activity vs control,"rats [1]; HEF rats, 10 mg/kg i.g., 20-25 min",−4.72%
same,locomotor activity vs control,"rats [1]; HEF rats, 10 mg/kg i.g., 25-30 min",0%
same,locomotor activity vs control,"rats [1]; HEF rats, 10 mg/kg i.g., accumulated, listed as Phenotropil, 10 mg/kg",−4.23%
same,locomotor activity vs control,"rats [1]; LEF rats, 5 mg/kg i.g., 0-5 min",+15.0% *
same,locomotor activity vs control,"rats [1]; LEF rats, 5 mg/kg i.g., 5-10 min",+6.18%
same,locomotor activity vs control,"rats [1]; LEF rats, 5 mg/kg i.g., 10-15 min",+9.74%
same,locomotor activity vs control,"rats [1]; LEF rats, 5 mg/kg i.g., 15-20 min",+29.1% *
same,locomotor activity vs control,"rats [1]; LEF rats, 5 mg/kg i.g., 20-25 min",+2.1%
same,locomotor activity vs control,"rats [1]; LEF rats, 5 mg/kg i.g., 25-30 min",+10.0% *
same,locomotor activity vs control,"rats [1]; LEF rats, 10 mg/kg i.g., 0-5 min",+4.31%
same,locomotor activity vs control,"rats [1]; LEF rats, 10 mg/kg i.g., 5-10 min",+11.31% *
same,locomotor activity vs control,"rats [1]; LEF rats, 10 mg/kg i.g., 10-15 min",+27.85%
same,locomotor activity vs control,"rats [1]; LEF rats, 10 mg/kg i.g., 15-20 min",+7.23 * %
same,locomotor activity vs control,"rats [1]; LEF rats, 10 mg/kg i.g., 20-25 min",+14.39% *
same,locomotor activity vs control,"rats [1]; LEF rats, 10 mg/kg i.g., 25-30 min",+3.75%
same,locomotor activity vs control,"rats [1]; population (normal) rats, 5 mg/kg i.g., 0-5 min",+18.06% *
same,locomotor activity vs control,"rats [1]; population (normal) rats, 5 mg/kg i.g., 5-10 min",−5.95%
same,locomotor activity vs control,"rats [1]; population (normal) rats, 5 mg/kg i.g., 10-15 min",−13.03% *
same,locomotor activity vs control,"rats [1]; population (normal) rats, 5 mg/kg i.g., 15-20 min",−22.55% *
same,locomotor activity vs control,"rats [1]; population (normal) rats, 5 mg/kg i.g., 20-25 min",+50.76% *
same,locomotor activity vs control,"rats [1]; population (normal) rats, 5 mg/kg i.g., 25-30 min",+50.97% *
same,locomotor activity vs control,"rats [1]; population (normal) rats, 5 mg/kg i.g., accumulated",+4.28% *
same,locomotor activity vs control,"rats [1]; population (normal) rats, 10 mg/kg i.g., 0-5 min",+38.8% *
same,locomotor activity vs control,"rats [1]; population (normal) rats, 10 mg/kg i.g., 5-10 min",−5.78%
same,locomotor activity vs control,"rats [1]; population (normal) rats, 10 mg/kg i.g., 10-15 min",+5.56%
same,locomotor activity vs control,"rats [1]; population (normal) rats, 10 mg/kg i.g., 15-20 min",+42.91 * %
same,locomotor activity vs control,"rats [1]; population (normal) rats, 10 mg/kg i.g., 20-25 min",+95.6% *
same,locomotor activity vs control,"rats [1]; population (normal) rats, 10 mg/kg i.g., 25-30 min",−91.47% *
same,locomotor activity vs control,"rats [1]; population (normal) rats, 10 mg/kg i.g., accumulated",+18.0% *
same,"hypotensive activity, average",rats [2],13%±2.85
same,HSP32 Total vs outbred control,HSP32; 200 mg/kg single,+68.8 * %
same,decrease of gene expression (heat shock protein),HSP32; tested dose,17.7%

# From patent publication US20140315972A1, “RS)-2-(2-oxo-4-phenylpyrrolidin-1-yl)acetamide compound having modulatory activity with a commensurate effect, pharmaceutical substance (variants) and its application, composition (variants) thereof” (priority 2011, published 2014)
